Two compounds from ChEMBL document CHEMBL1154399, “Induction of voriconazole metabolism by rifampin in a patient with acute myeloid leukemia: importance of interdisciplinary communication to prevent treatment errors with complex medications” (Antimicrob Agents Chemother, 2007) can be followed below.

What all share (type): ADME, organism-based
In data set [1] the test system is Homo sapiens. Nature of the data set: Induction of voriconazole metabolism in po dosed […] infection patient assessed as increase in hydroxyvoriconazole levels after 30 days. As to conditions: in vivo, 720 h.
Data set [2] has as its system Homo sapiens. The data set can be described thus: Effect on voriconazole metabolism in po dosed […] infection patient assessed as decrease in voriconazole exposure levels after 30 days. More on the design: scale not given: the % may be the effect or the level left. As to conditions: in vivo, 720 h.
In data set [3] the test system is Homo sapiens. The data set can be described thus: Induction of voriconazole metabolism in po dosed […] infection patient assessed as increase in dihydroxyvoriconazole levels after 30 days. As to conditions: in vivo, 720 h.
Data set [4] relates to Homo sapiens. Nature of the data set: Induction of voriconazole metabolism in po dosed […] infection patient assessed as increase in voriconazole N-oxide metabolite levels after 30 days. The conditions noted are these: in vivo, 720 h.
Data set [5] can be described thus: Cmax in […] infection patient at 400 mg, po administered daily after 36 days of drug therapy and 30 days of rifampin coadministration. More on the design: dose 400 mg, route oral. As to conditions: human, in vivo.
Data set [6] is described as follows: AUC (0 to infinity) in […] infection patient at 400 mg, po administered daily after 36 days of drug therapy and 30 days of rifampin coadministration. Set-up: dose 400 mg, route oral, time infinity. The conditions noted are these: human, plasma.
A short description of data set [7]: Cmax in […] infection patient at 400 mg, po administered daily. More on the design: dose 400 mg, route oral. As to conditions: human, in vivo.
Data set [8] can be described thus: AUC (0 to infinity) in […] infection patient at 400 mg, po administered daily. More on the design: dose 400 mg, route oral, time infinity. As to conditions: human, plasma.

In the case of `CO[C@H]1/C=C/O[C@@]2(C)Oc3c(C)c(O)c4c(O)c(c(/C=N/N5CCN(C)CC5)c(O)c4c3C2=O)NC(=O)/C(C)=C\C=C\[C@H](C)[C@H](O)[C@@H](C)[C@@H](O)[C@@H](C)[C@H](OC(C)=O)[C@@H]1C` [RIFAMPIN], the “fold change (FC)” value with Homo sapiens [1] is listed as 178; in the data set on Homo sapiens [3], 422; with Homo sapiens [4], 45. Moreover, the Activity in the data set with Homo sapiens [2] is recorded as 99%.

For `C[C@@H](c1ncncc1F)[C@](O)(Cn1cncn1)c1ccc(F)cc1F` [VORICONAZOLE], the figures for the Cmax in data set [5] and in data set [7] were 38 ng/mL and 3920 ng/mL, respectively. The AUC(0-inf) (commonly total exposure, with the tail of the curve extrapolated) in data set [6] is 145 ng·h/mL; in data set [8], 27400 ng·h/mL.
